Our source for the IC50 values is patent publication US20260265244A1, “HETEROCYCLIC COMPOUNDS AS STING ANTAGONISTS” (Boehringer Ingelheim International GmbH, priority 2022, published 2026).

The test system of the first assay is STING inhibition in human whole blood (IFNα2α production). The assay can be described thus: Human whole blood assay (HWBA): cGAMP-stimulated IFNα2α production. The assay is classed as cell-based.
Conditions: not given
The gist of the method:
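Na-citrate human whole blood from ≥3 healthy donors, preincubated 60 min at room temperature with compound (8 concentrations, top 10 μM, ~1:5 steps, 0.1% DMSO), then stimulated with cGAMP and incubated 22 h at 37 °C. Plasma IFNα2α measured by MSD immunoassay; % control versus stimulated/unstimulated wells, IC50 by 4-parameter logistic fit.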
Take `COC(C)c1nc2nn(C)cc2cc1-n1nc(-c2cccc3nn(C[C@H](O)c4ccccc4)cc23)c(C(C)C)c1C` (stereo partly shown) [Example 75]: half-maximal inhibition (IC50) required 0.45 µM.

Still in this assay, the particulars now being: Homo sapiens.
The molecule `CNc1nc2nn(C)cc2cc1-n1nc(-c2cccc3nn(C[C@H](O)c4ccccc4)cc23)c(C(C)C)c1C` [Example 84, (1R)-2-(4-{5-methyl-1-[2-methyl-6-(methylamino)-2H-pyrazolo[3,4-b]pyridin-5-yl]-4-(propan-2-yl)-1H-pyrazol-3-yl}-2H-indazol-2-yl)-1-phenylethan-1-ol] came in with an IC50 of 0.64 µM. This lies in the sub-micromolar range.

Consider `Cc1nc2nn(C)cc2cc1-n1nc(-c2cccc3nn(CC(O)C4CCCCC4)cc23)c(C(C)C)c1C` (stereo not shown) [Example 83, 1-cyclohexyl-2-[4-(1-{2,6-dimethyl-2H-pyrazolo[3,4-b]pyridin-5-yl}-5-methyl-4-(propan-2-yl)-1H-pyrazol-3-yl)-2H-indazol-2-yl]ethan-1-ol], for which the IC50 came out at 0.63 µM. This IC50 and that of the molecule before are within 1.5-fold of each other.

On to `[2H][C@](O)(Cn1cc2c(-c3nn(-c4cc5cn(C)nc5nc4C)c(C)c3C(C)C)cccc2n1)c1ccccc1` [Example 3, (1R)-2-[4-(1-{2,6-dimethyl-2H-pyrazolo[3,4-b]pyridin-5-yl}-5-methyl-4-(propan-2-yl)-1H-pyrazol-3-yl)-2H-indazol-2-yl]-1-phenyl(1-^2H)ethan-1-ol], for which it took 0.058 µM to reach half-maximal inhibition (IC50).

On to `Cc1nc2nn(C)cc2cc1-n1nc(-c2cccc3nn(C[C@H](OCCF)c4ccccc4)cc23)c(C(C)C)c1C` [Example 78, 4-(1-{2,6-dimethyl-2H-pyrazolo[3,4-b]pyridin-5-yl}-5-methyl-4-(propan-2-yl)-1H-pyrazol-3-yl)-2-[(2R)-2-(2-fluoroethoxy)-2-phenylethyl]-2H-indazole], for which the IC50 turned out to be 0.56 µM.

`Cn1cc([C@@H](O)Cn2cc3c(-c4nc(-c5cc6cn(C)nc6nc5C5CC5)n(C)c4C4CC4)cccc3n2)cn1` [Example 91, (1R)-2-[4-(5-cyclopropyl-2-{6-cyclopropyl-2-methyl-2H-pyrazolo[3,4-b]pyridin-5-yl}-1-methyl-1H-imidazol-4-yl)-2H-indazol-2-yl]-1-(1-methyl-1H-pyrazol-4-yl)ethan-1-ol] returned an IC50 of 1.6 µM. This IC50 is about 2.9-fold higher than that of the molecule before.

`Cc1cc([C@@H](O)Cn2cc3c(-c4nn(-c5cc6cn(C)nc6nc5C)c(C)c4C(C)C)cccc3n2)ccn1` [Example 82, (1R)-2-[4-(1-{2,6-dimethyl-2H-pyrazolo[3,4-b]pyridin-5-yl}-5-methyl-4-(propan-2-yl)-1H-pyrazol-3-yl)-2H-indazol-2-yl]-1-(2-methylpyridin-4-yl)ethan-1-ol] returned an IC50 of 0.61 µM.

Take `Cc1c(-n2nc(-c3cccc4nn(C[C@H](O)c5ccccc5)cc34)c(C(C)C)c2C)ccn2c(C)cnc12` [Example 94, (1R)-2-[4-(1-{3,8-dimethylimidazo[1,2-a]pyridin-7-yl}-5-methyl-4-(propan-2-yl)-1H-pyrazol-3-yl)-2H-indazol-2-yl]-1-phenylethan-1-ol]: the midpoint of inhibition, the IC50, lay at 2.4 µM.

With `Cc1nc2nn(C)cc2cc1-n1nc(-c2cccc3nn(C[C@H](O)c4ccccc4)cc23)c(C(C)CO)c1C` (stereo partly drawn) [Example 95, 2-(1-{2,6-dimethyl-2H-pyrazolo[3,4-b]pyridin-5-yl}-3-{2-[(2R)-2-hydroxy-2-phenylethyl]-2H-indazol-4-yl}-5-methyl-1H-pyrazol-4-yl)propan-1-ol], the IC50 is 2.5 µM.

The molecule `CCCO[C@@H](Cn1cc2c(-c3nn(-c4cc5cn(C)nc5nc4C)c(C)c3C(C)C)cccc2n1)c1ccccc1` [Example 81, 4-(1-{2,6-dimethyl-2H-pyrazolo[3,4-b]pyridin-5-yl}-5-methyl-4-(propan-2-yl)-1H-pyrazol-3-yl)-2-[(2R)-2-phenyl-2-propoxyethyl]-2H-indazole] showed an IC50 of 0.61 µM.

`COCCO[C@@H](Cn1cc2c(-c3nn(-c4cc5cn(C)nc5nc4C)c(C)c3C(C)C)cccc2n1)c1ccccc1` [Example 85, 4-(1-{2,6-dimethyl-2H-pyrazolo[3,4-b]pyridin-5-yl}-5-methyl-4-(propan-2-yl)-1H-pyrazol-3-yl)-2-[(2R)-2-(2-methoxyethoxy)-2-phenylethyl]-2H-indazole] had an IC50 of 0.66 µM.

In the case of `Cc1nc2nn(C)cc2cc1-n1nc(-c2cccc3nn(C[C@H](O)c4ccccc4)cc23)c(C2(C)CC2)c1C` [Example 92, (1R)-2-[4-(1-{2,6-Dimethyl-2H-pyrazolo[3,4-b]pyridin-5-yl}-5-methyl-4-(1-methylcyclopropyl)-1H-pyrazol-3-yl)-2H-indazol-2-yl]-1-phenylethan-1-ol], 2 µM corresponded to half-maximal inhibition (IC50).

`Cc1c(-n2nc(-c3cccc4nn(C[C@H](O)c5ccccc5)cc34)c(C(C)C)c2C)ccn2c(C)nnc12` [Example 86, (1R)-2-[4-(1-{3,8-dimethyl-[1,2,4]triazolo[4,3-a]pyridin-7-yl}-5-methyl-4-(propan-2-yl)-1H-pyrazol-3-yl)-2H-indazol-2-yl]-1-phenylethan-1-ol]: the IC50 was found to be 0.69 µM.

For the molecule `Cc1c(C(C)C)c(-c2cccc3nn(C[C@H](O)c4ccccc4)cc23)nn1-c1cc2cn(C)nc2nc1C1(C)CC1` [Example 80, (1R)-2-(4-{5-methyl-1-[2-methyl-6-(1-methylcyclopropyl)-2H-pyrazolo[3,4-b]pyridin-5-yl]-4-(propan-2-yl)-1H-pyrazol-3-yl}-2H-indazol-2-yl)-1-phenylethan-1-ol], the midpoint of inhibition, the IC50, lay at 0.58 µM. This IC50 and that of the molecule before are within 1.5-fold of each other.

For the molecule `Cc1c(C(C)C)c(-c2cccc3nn(C[C@H](O)c4ccccc4)cc23)nn1-c1cc2cn(C)nc2nc1N(C)C` [Example 87, (1R)-2-(4-{1-[6-(dimethylamino)-2-methyl-2H-pyrazolo[3,4-b]pyridin-5-yl]-5-methyl-4-(propan-2-yl)-1H-pyrazol-3-yl}-2H-indazol-2-yl)-1-phenylethan-1-ol], the IC50 was 0.85 µM.

For the molecule `CCc1c(-c2cccc3nn(C[C@H](O)c4ccccc4)cc23)nn(-c2cc3cn(C)nc3nc2C)c1CC` [Example 93, (1R)-2-[4-(1-{2,6-dimethyl-2H-pyrazolo[3,4-b]pyridin-5-yl}-4,5-diethyl-1H-pyrazol-3-yl)-2H-indazol-2-yl]-1-phenylethan-1-ol], the IC50 was found to be 2.4 µM.

Consider `Cc1c(C(C)C)c(-c2cccc3nn(C[C@H](O)c4ccccc4)cc23)nn1-c1cc2cn(C)nc2nc1C(C)(C)O` [Example 89, 2-[5-(3-{2-[(2R)-2-hydroxy-2-phenylethyl]-2H-indazol-4-yl}-5-methyl-4-(propan-2-yl)-1H-pyrazol-1-yl)-2-methyl-2H-pyrazolo[3,4-b]pyridin-6-yl]propan-2-ol], for which the IC50 turned out to be 1 µM. This IC50 is about 2.4-fold lower than that of the molecule before.

Molecule `Cc1nc2nn(C)cc2cc1-n1nc(-c2cccc3nn(CC(O)c4ccc(Br)cc4)cc23)c(C(C)C)c1C` (stereo not shown) [Example 88, 1-(4-Bromophenyl)-2-[4-(1-{2,6-dimethyl-2H-pyrazolo[3,4-b]pyridin-5-yl}-5-methyl-4-(propan-2-yl)-1H-pyrazol-3-yl)-2H-indazol-2-yl]ethan-1-ol] registered an IC50 of 0.93 µM.

Molecule `Cn1cc2cc(-c3nc(-c4cccc5nn(C[C@H](O)c6ccc(OCC#N)cc6)cc45)c(C4CC4)n3C)c(C3CC3)nc2n1` [Example 90, 2-{4-[(1R)-2-[4-(5-cyclopropyl-2-{6-cyclopropyl-2-methyl-2H-pyrazolo[3,4-b]pyridin-5-yl}-1-methyl-1H-imidazol-4-yl)-2H-indazol-2-yl]-1-hydroxyethyl]phenoxy} acetonitrile] had an IC50 of 1.1 µM.

On to `Cc1c(C(C)C)c(-c2cccc3nn(C[C@H](O)c4ccccc4)cc23)nn1-c1ccn2c(C(F)F)nnc2c1C1CC1` [Example 76], for which the IC50 amounted to 0.52 µM.

Take `Cc1nc2nn(C)cc2cc1-n1nc(-c2cccc3nn(C[C@H](OCCC(C)(C)O)c4ccccc4)cc23)c(C(C)C)c1C` [Example 74, 4-[(1R)-2-[4-(1-{2,6-dimethyl-2H-pyrazolo[3,4-b]pyridin-5-yl}-5-methyl-4-(propan-2-yl)-1H-pyrazol-3-yl)-2H-indazol-2-yl]-1-phenylethoxy]-2-methylbutan-2-ol]: the midpoint of inhibition, the IC50, lay at 0.45 µM.

`C=CCO[C@@H](Cn1cc2c(-c3nn(-c4cc5cn(C)nc5nc4C)c(C)c3C(C)C)cccc2n1)c1ccccc1` [Example 79, 4-(1-{2,6-dimethyl-2H-pyrazolo[3,4-b]pyridin-5-yl}-5-methyl-4-(propan-2-yl)-1H-pyrazol-3-yl)-2-[(2R)-2-phenyl-2-(prop-2-en-1-yloxy)ethyl]-2H-indazole] had a concentration for half-maximal inhibition (IC50) of 0.58 µM.

For orientation: IC50 means the concentration at which inhibition is half-maximal.
